Measurements reported in article PMC6136660 (Steroids, 2018).

Assays:
[1] = test system: blood glucose (insulin resistance biomarker); test: Blood glucose, SAD; format: in vivo, human; conditions: mean±SEM
Procedure: All biomarkers were analyzed using standard immunoassays by PRA.
Glucocorticoids were originally named as such due to their potent and acute effects on glucose metabolism, where liver and muscle pathways for insulin signaling are rapidly and profoundly affected, creating a state of insulin resistance. […] Fasting insulin and glucose levels were assessed in all dose groups in the vamorolone Phase 1 SAD and MAD.

[2] = Clinical safety (treatment-emergent adverse events), SAD; format: in vivo, human
Procedure: In the SAD part of the study, 7 cohorts were to be enrolled. Eight subjects were assigned to each of Cohorts 1 to 5 and 7 and received a single oral dose of vamorolone (planned as 0.1 mg/kg, 0.3 mg/kg, 1.0 mg/kg, 3.0 mg/kg, 8.0 mg/kg, and 20.0 mg/kg, respectively) or placebo under fasted conditions. Six subjects were assigned to Cohort 6 and were administered a single oral dose of 8.0 mg/kg vamorolone within 30 min of beginning a high fat/high calorie meal.
Subjects in Cohorts 1 through 5 and 7 were randomized to receive vamorolone or placebo in a 3:1 ratio (6 subjects received vamorolone, and 2 subjects received placebo) sequentially. In Cohort 1, 3 sentinel subjects were administered vamorolone or placebo in a 2:1 ratio. Following a review of sentinel safety and tolerability data (including reported adverse events [AEs], clinical laboratory tests, vital signs, and electrocardiograms [ECGs]), the remaining 5 subjects were randomized to receive vamorolone or placebo in a 4:1 ratio and dosed no earlier than 48 h after sentinel dosing. In Cohorts 2 to 5, and 7, subjects were administered vamorolone or placebo in a 3:1 ratio. Once Cohort 5 was completed and safety data had been reviewed, subjects in Cohort 6 were administered a single oral dose of 8.0 mg/kg vamorolone within 30 min of beginning a standard high fat/high calorie meal.
After completion of all scheduled safety follow-up visits for a given cohort, a Safety Review Committee (SRC), comprised of the Principal Investigator (PI), the Sponsor’s Medical Monitor, and the Sponsor’s pharmacokineticist, reviewed all available PK and safety data (AEs, physical examination findings, ECGs, vital signs, and clinical laboratory tests) in a blinded manner for the completed cohort prior to making a decision to escalate to the next higher dose level.
In the SAD part, overall, six subjects (11%) administered vamorolone experienced a total of 10 treatment-emergent adverse events (TEAEs); no subject in the placebo group experienced any TEAEs. There was no dose-related trend in the incidence or severity of TEAEs; the dose group with the highest number of subjects reporting TEAEs was the 0.1 mg/kg dose group (2 subjects, 33%), and the highest number of TEAEs (3 events) was reported by 1 subject in the 1.0 mg/kg vamorolone dose group. In the 0.3 and 3.0 mg/kg vamorolone fasted and the 8.0 mg/kg fed dose groups, 1 subject per group (17%) experienced TEAEs, and no subjects in the 8.0 mg/kg and 20 mg/kg, fasted, dose groups experienced any TEAEs. The most common TEAEs were dizziness and headache, each reported by 2 subjects overall (4%); all other TEAEs were reported by only 1 subject (2%) and included ear pain, nausea, non-cardiac chest pain, and blood bilirubin increased. Three subjects (6%) had TEAEs that were considered possibly related to treatment. Possibly related TEAEs included nausea (1 subject, 2%), dizziness (2 subjects, 4%), and headache (2 subjects, 4%). […] All other TEAEs were mild in severity.

## C[C@@H]1C[C@H]2[C@@H]3CCC4=CC(=O)C=C[C@]4(C)C3=CC[C@]2(C)[C@@]1(O)C(=O)CO [vamorolone]
[1]; SAD 0.1 mg/kg, 24 Hours Post Dose
  Blood glucose: 95 ± 4 mg/dL
[1]; SAD 0.1 mg/kg, 48 Hours Post Dose
  Blood glucose: 95 ± 3 mg/dL
[1]; SAD 0.1 mg/kg, 72 Hours Post Dose
  Blood glucose: 94 ± 4 mg/dL
[1]; SAD 0.1 mg/kg, <2 hours predose, baseline
  Blood glucose: 95 ± 3 mg/dL
[1]; SAD 0.1 mg/kg, Day -1, baseline
  Blood glucose: 99 ± 3 mg/dL
[1]; SAD 0.1 mg/kg, Follow-up Visit
  Blood glucose: 98 ± 4 mg/dL
[1]; SAD 0.1 mg/kg, Screening, baseline
  Blood glucose: 94 ± 4 mg/dL
[1]; SAD 0.3 mg/kg, 24 Hours Post Dose
  Blood glucose: 91 ± 2 mg/dL
[1]; SAD 0.3 mg/kg, 48 Hours Post Dose
  Blood glucose: 90 ± 2 mg/dL
[1]; SAD 0.3 mg/kg, 72 Hours Post Dose
  Blood glucose: 91 ± 1 mg/dL
[1]; SAD 0.3 mg/kg, <2 hours predose, baseline
  Blood glucose: 93 ± 2 mg/dL
[1]; SAD 0.3 mg/kg, Day -1, baseline
  Blood glucose: 91 ± 2 mg/dL
[1]; SAD 0.3 mg/kg, Follow-up Visit
  Blood glucose: 88 ± 4 mg/dL
[1]; SAD 0.3 mg/kg, Screening, baseline
  Blood glucose: 93 ± 2 mg/dL
[1]; SAD 1.0 mg/kg, 24 Hours Post Dose
  Blood glucose: 86 ± 3 mg/dL
[1]; SAD 1.0 mg/kg, 48 Hours Post Dose
  Blood glucose: 88 ± 3 mg/dL
[1]; SAD 1.0 mg/kg, 72 Hours Post Dose
  Blood glucose: 86 ± 3 mg/dL
[1]; SAD 1.0 mg/kg, <2 hours predose, baseline
  Blood glucose: 93 ± 3 mg/dL
[1]; SAD 1.0 mg/kg, Day -1, baseline
  Blood glucose: 92 ± 3 mg/dL
[1]; SAD 1.0 mg/kg, Follow-up Visit
  Blood glucose: 93 ± 2 mg/dL
[1]; SAD 1.0 mg/kg, Screening, baseline
  Blood glucose: 92 ± 3 mg/dL
[1]; SAD 3.0 mg/kg, 24 Hours Post Dose
  Blood glucose: 93 ± 3 mg/dL
[1]; SAD 3.0 mg/kg, 48 Hours Post Dose
  Blood glucose: 89 ± 4 mg/dL
[1]; SAD 3.0 mg/kg, 72 Hours Post Dose
  Blood glucose: 88 ± 3 mg/dL
[1]; SAD 3.0 mg/kg, <2 hours predose, baseline
  Blood glucose: 92 ± 4 mg/dL
[1]; SAD 3.0 mg/kg, Day -1, baseline
  Blood glucose: 89 ± 3 mg/dL
[1]; SAD 3.0 mg/kg, Follow-up Visit
  Blood glucose: 91 ± 5 mg/dL
[1]; SAD 3.0 mg/kg, Screening, baseline
  Blood glucose: 96 ± 5 mg/dL
[1]; SAD 8.0 mg/kg, 24 Hours Post Dose
  Blood glucose: 91 ± 4 mg/dL
[1]; SAD 8.0 mg/kg, 48 Hours Post Dose
  Blood glucose: 87 ± 3 mg/dL
[1]; SAD 8.0 mg/kg, 72 Hours Post Dose
  Blood glucose: 89 ± 4 mg/dL
[1]; SAD 8.0 mg/kg, <2 hours predose, baseline
  Blood glucose: 86 ± 3 mg/dL
[1]; SAD 8.0 mg/kg, Day -1, baseline
  Blood glucose: 90 ± 5 mg/dL
[1]; SAD 8.0 mg/kg, Follow-up Visit
  Blood glucose: 94 ± 4 mg/dL
[1]; SAD 8.0 mg/kg, Screening, baseline
  Blood glucose: 89 ± 4 mg/dL
[1]; SAD 20.0 mg/kg, 24 Hours Post Dose
  Blood glucose: 91 ± 2 mg/dL
[1]; SAD 20.0 mg/kg, 48 Hours Post Dose
  Blood glucose: 86 ± 2 mg/dL
[1]; SAD 20.0 mg/kg, 72 Hours Post Dose
  Blood glucose: 88 ± 2 mg/dL
[1]; SAD 20.0 mg/kg, <2 hours predose, baseline
  Blood glucose: 97 ± 4 mg/dL
[1]; SAD 20.0 mg/kg, Day -1, baseline
  Blood glucose: 94 ± 3 mg/dL
[1]; SAD 20.0 mg/kg, Follow-up Visit
  Blood glucose: 89 ± 3 mg/dL
[1]; SAD 20.0 mg/kg, Screening, baseline
  Blood glucose: 93 ± 3 mg/dL
[2]; SAD 0.1 mg/kg (2 subjects)
  subjects reporting TEAEs: 33%
[2]; SAD 0.3 mg/kg fasted (1 subject)
  subjects experiencing TEAEs: 17%
[2]; SAD 1.0 mg/kg, reported by 1 subject
  number of TEAEs: 3 events
[2]; SAD 3.0 mg/kg fasted (1 subject)
  subjects experiencing TEAEs: 17%
[2]; SAD 8.0 mg/kg fasted
  subjects experiencing TEAEs: no subjects
[2]; SAD 8.0 mg/kg fed (1 subject)
  subjects experiencing TEAEs: 17%
[2]; SAD 20 mg/kg fasted
  subjects experiencing TEAEs: no subjects
[2]; SAD, all dose groups (six subjects, 10 TEAEs)
  subjects experiencing TEAEs, overall: 11%
